Data on three compounds can be found in patent US8841285B2, “Potent immunosuppressive agents, derivatives and uses” (priority 2002, dated 2014).

The test system of one test is RKO cells. Briefly: cell proliferation assay, RKO cells. The format is cell-based. The conditions noted are these: Homo sapiens. The protocol: Cell Proliferation Assay. 1×10^5 of indicated cells in each well of a 96-well plate were treated with indicated compounds for 24 h followed by addition of 0.11 μCi of [^3H]-thymidine (6.7 Ci/mmol) per well for 6 h, followed by harvesting to GF/C filtermats using a cell harvester. Filtermats were air-dried and scintillation counted. IC50s were determined from quadruplicate data readings and curve-fitting analysis.

The test system of the next test is HeLa cells. The format is cell-based.
The test system of test [1] is cap-dependent translation. The test can be described thus: in vitro translation in RRL, bicistronic reporter, cap-dependent cistron. The format is biochemical, rabbit. Conditions: HCV IRES bicistronic reporter. The protocol: In vitro Translation and Transcription. pSP/(CAG)33/FF/HCV/Ren·pA51 and pKS/FF/EMC/Ren were linearized by BamHI, then purified by phenol:chloroform extraction and ethanol precipitation, and dissolved in water. pSP/(CAG)33/FF/HCV/Ren·A51 and pKS/FF/EMC/Ren were individually transcribed using a large scale RNA production system in the presence of m7Gppp cap analog followed by incubation with DNase as described by the manufacturer. Resulting RNA was purified using a kit as described by the manufacturer. Translation was performed using a rabbit reticulocyte lysate system as per instructions. Briefly, 200 ng of purified RNA was combined in a 20 μl reaction containing 10 μl RRL, 0.2 μl each of minus Met and minus Leu amino acid mixtures, 70 mM KCl, 2 mM DTT, 1× translation buffer, and 10 units of RNasin. Compounds or DMSO were added to a final DMSO concentration of 2%. Reactions were incubated at 30° C. for 1.5 h, then 5 μl of the reaction mixture was assayed for luciferase activity as per instructions of luciferas reporter assay system.

The test system of a further test is 293T cells. Briefly: cellular polyribosome profiles. The format is cell-based. Conditions: 30 min treatment. The protocol: Cellular polyribosome profiles. 293T cells were treated as indicated for 30 min. Cells were washed twice with ice-cold PBS and pipetted for 5 min in 500 μl of chilled TMK100 buffer (20 mM Tris-HCl pH 7.4, 5 mM MgCl2 100 mM KCl, 2 mM DTT, 1% Triton X-100 and 100 U/ml RNAsin in DEPC water). After clearing at 10,000×g (10 min) at 4° C., the supernatant (S10) was layered onto 11 ml, 15-45% linear sucrose gradient containing 20 mM HEPES pH 7.4, 100 mM KCl, 5 mM MgCl2 and 2 mM DTT. Ultracentrifugation at 40,000 rpm for 1.5 h at 4° C. was performed in a suitable rotor. Fractions were collected from the top of the gradient by injection of Flurinert FC-40 from bottom of centrifuge tube. Gradient profiles were monitored at 254 nm. For immunoblotting, 7 mg of total protein were processed as described above, followed by collection of 500 μl fractions were collected from the top. 100 μl aliquots of each were boiled in SDS sample buffer, followed by SDS-PAGE and immunoblotting.

The term IC50 denotes the concentration that gives 50% inhibition. Compound `CC(/C=C/C(C)=C/[C@@H]1Cc2nc(cs2)[C@@H](C)CC(NCC(=O)NCCOCCOCCNC(=O)CCCC[C@@H]2SCC3NC(=O)NC32)CC(=O)O[C@@H](C)C/C(C)=C/C=C\C(=O)O1)=C\CN(C)C` (some centres unmarked) [B-PatA, Biotin-PEO-Pateamine A] gave an IC50 in the test on RKO cells of less than 15 nM. For the compound arsenite, the stress granule formation result in the test with HeLa cells was “eIF4B co-localized with TIA-1 in stress granules”.

For `C[C@@H]1C[C@@H]([C@H](O)CC2CC(=O)NC(=O)C2)C(=O)[C@@H](C)C1` [CHX, cycloheximide], in test [1], the “inhibition of cap- versus HCV IRES-dependent translation” value is “nearly equal inhibition”. The “effect on polysome profile” value in the test on 293T cells is “did not perturb the sucrose gradient profile”. Moreover, the stress granule formation result in the test with HeLa cells is given as “did not induce stress granule formation”.
